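Tested at 5 concentrations; 48 h exposure; 96-well plates; endpoints linearly interpolated, else capped at highest concentration. TGI marks complete inhibition of growth.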
How the values were obtained:
Experiment in all cases: DTP human tumour cell line panel, 48 h
786-0 renal = system: 786-0 renal
A549 NSCLC = system: A549 NSCLC
ACHN renal = system: ACHN renal
BT-549 breast = system: BT-549 breast
CAKI-1 renal = system: CAKI-1 renal
CCRF-CEM leukemia = system: CCRF-CEM leukemia
COLO 205 colon = system: COLO 205 colon
DU-145 prostate = system: DU-145 prostate
EKVX NSCLC = system: EKVX NSCLC
HCC-2998 colon = system: HCC-2998 colon
HCT-116 colon = system: HCT-116 colon
HCT-15 colon = system: HCT-15 colon
HL-60(TB) leukemia = system: HL-60(TB) leukemia
HOP-62 NSCLC = system: HOP-62 NSCLC
HOP-92 NSCLC = system: HOP-92 NSCLC
HS 578T breast = system: HS 578T breast
HT29 colon = system: HT29 colon
IGROV1 ovarian = system: IGROV1 ovarian
KM12 colon = system: KM12 colon
LOX IMVI melanoma = system: LOX IMVI melanoma
M14 melanoma = system: M14 melanoma
MALME-3M melanoma = system: MALME-3M melanoma
MCF7 breast = system: MCF7 breast
MDA-MB-231 breast = system: MDA-MB-231 breast
MDA-MB-435 = system: MDA-MB-435
MDA-N = system: MDA-N
MOLT-4 leukemia = system: MOLT-4 leukemia
NCI-H226 lung = system: NCI-H226 lung
NCI-H23 lung = system: NCI-H23 lung
NCI-H522 lung = system: NCI-H522 lung
NCI/ADR-RES ovarian = system: NCI/ADR-RES ovarian
OVCAR-3 ovarian = system: OVCAR-3 ovarian
OVCAR-4 ovarian = system: OVCAR-4 ovarian
OVCAR-5 ovarian = system: OVCAR-5 ovarian
OVCAR-8 ovarian = system: OVCAR-8 ovarian
PC-3 prostate = system: PC-3 prostate
RPMI-8226 leukemia = system: RPMI-8226 leukemia
RXF 393 renal = system: RXF 393 renal
SF-268 CNS = system: SF-268 CNS
SF-295 CNS = system: SF-295 CNS
SF-539 CNS = system: SF-539 CNS
SK-MEL-2 melanoma = system: SK-MEL-2 melanoma
SK-MEL-28 melanoma = system: SK-MEL-28 melanoma
SK-OV-3 ovarian = system: SK-OV-3 ovarian
SN12C renal = system: SN12C renal
SNB-19 CNS = system: SNB-19 CNS
SNB-75 CNS = system: SNB-75 CNS
SR leukemia = system: SR leukemia
SW-620 colon = system: SW-620 colon
T-47D breast = system: T-47D breast
TK-10 renal = system: TK-10 renal
U251 CNS = system: U251 CNS
UACC-257 melanoma = system: UACC-257 melanoma
UACC-62 melanoma = system: UACC-62 melanoma
UO-31 renal = system: UO-31 renal
NCI-H460 lung = system: NCI-H460 lung
SK-MEL-5 melanoma = system: SK-MEL-5 melanoma

`O=C1NC(N2CCOCC2)=N/C1=C\c1ccc(Cl)cc1` was tested, and the TGI (786-0 renal) was > 100 µM, the TGI (A549 NSCLC) was > 100 µM and the TGI (ACHN renal) was > 100 µM. The TGI (BT-549 breast) was > 100 µM, the TGI (CAKI-1 renal) was > 100 µM and the TGI (CCRF-CEM leukemia) was > 100 µM. The TGI (COLO 205 colon) was > 100 µM, the TGI (DU-145 prostate) was > 100 µM and the TGI (EKVX NSCLC) was > 100 µM. The TGI (HCC-2998 colon) was > 100 µM, the TGI (HCT-116 colon) was > 100 µM and the TGI (HCT-15 colon) was > 100 µM. For the same compound, the TGI (HL-60(TB) leukemia) was > 100 µM, the TGI (HOP-62 NSCLC) was > 100 µM and the TGI (HOP-92 NSCLC) was > 100 µM. For the same compound, the TGI (HS 578T breast) was > 100 µM, the TGI (HT29 colon) was > 100 µM and the TGI (IGROV1 ovarian) was > 100 µM. The TGI (KM12 colon) was > 100 µM, the TGI (LOX IMVI melanoma) was > 100 µM and the TGI (M14 melanoma) was > 100 µM. For the same compound, the TGI (MALME-3M melanoma) was > 100 µM, the TGI (MCF7 breast) was > 100 µM and the TGI (MDA-MB-231 breast) was > 100 µM. The TGI (MDA-MB-435) was > 100 µM, the TGI (MDA-N) was > 100 µM and the TGI (MOLT-4 leukemia) was > 100 µM. For the same compound, the TGI (NCI-H226 lung) was > 100 µM, the TGI (NCI-H23 lung) was > 100 µM and the TGI (NCI-H522 lung) was > 100 µM. For the same compound, the TGI (NCI/ADR-RES ovarian) was > 100 µM, the TGI (OVCAR-3 ovarian) was > 100 µM and the TGI (OVCAR-4 ovarian) was > 100 µM. For the same compound, the TGI (OVCAR-5 ovarian) was > 100 µM, the TGI (OVCAR-8 ovarian) was > 100 µM and the TGI (PC-3 prostate) was > 100 µM. For the same compound, the TGI (RPMI-8226 leukemia) was > 100 µM, the TGI (RXF 393 renal) was > 100 µM and the TGI (SF-268 CNS) was > 100 µM. For the same compound, the TGI (SF-295 CNS) was > 100 µM, the TGI (SF-539 CNS) was > 100 µM and the TGI (SK-MEL-2 melanoma) was > 100 µM. For the same compound, the TGI (SK-MEL-28 melanoma) was > 100 µM, the TGI (SK-OV-3 ovarian) was > 100 µM and the TGI (SN12C renal) was > 100 µM. For the same compound, the TGI (SNB-19 CNS) was > 100 µM, the TGI (SNB-75 CNS) was > 100 µM and the TGI (SR leukemia) was > 100 µM. For the same compound, the TGI (SW-620 colon) was > 100 µM, the TGI (T-47D breast) was > 100 µM and the TGI (TK-10 renal) was > 100 µM. The TGI (U251 CNS) was > 100 µM, the TGI (UACC-257 melanoma) was > 100 µM and the TGI (UACC-62 melanoma) was > 100 µM. The TGI (UO-31 renal) was > 100 µM.

`CN(C)c1ccc(C=Nc2ccc(Oc3ccc(Cl)cc3)c(Cl)c2)cc1` gave a TGI (A549 NSCLC) of 53.4 µM, a TGI (ACHN renal) of 79.6 µM and a TGI (BT-549 breast) of 44.1 µM. For the same compound, the TGI (CAKI-1 renal) was 67.2 µM, the TGI (CCRF-CEM leukemia) was 57.7 µM and the TGI (COLO 205 colon) was 45.2 µM. For the same compound, the TGI (DU-145 prostate) was 79 µM, the TGI (EKVX NSCLC) was 40.8 µM and the TGI (HCC-2998 colon) was 38.9 µM. The TGI (HCT-116 colon) was 34.5 µM, the TGI (HCT-15 colon) was 41.7 µM and the TGI (HL-60(TB) leukemia) was 40.1 µM. The TGI (HOP-62 NSCLC) was 51.8 µM, the TGI (HOP-92 NSCLC) was 36.1 µM and the TGI (HS 578T breast) was 33.2 µM. For the same compound, the TGI (HT29 colon) was 29.6 µM, the TGI (IGROV1 ovarian) was 85.1 µM and the TGI (KM12 colon) was 34.2 µM. For the same compound, the TGI (LOX IMVI melanoma) was 47.6 µM, the TGI (M14 melanoma) was 87.1 µM and the TGI (MALME-3M melanoma) was 36.8 µM. For the same compound, the TGI (MCF7 breast) was > 100 µM, the TGI (MDA-MB-231 breast) was 38.5 µM and the TGI (MDA-MB-435) was > 100 µM. For the same compound, the TGI (MDA-N) was 52.8 µM, the TGI (MOLT-4 leukemia) was 66.3 µM and the TGI (NCI-H226 lung) was 63.4 µM. The TGI (NCI-H23 lung) was 39.9 µM, the TGI (NCI-H460 lung) was 42.1 µM and the TGI (NCI-H522 lung) was 31.4 µM. It also gave a TGI (NCI/ADR-RES ovarian) of 33.2 µM, a TGI (OVCAR-3 ovarian) of 32.4 µM and a TGI (OVCAR-4 ovarian) of 66.4 µM. For the same compound, the TGI (OVCAR-5 ovarian) was > 100 µM, the TGI (OVCAR-8 ovarian) was 36.8 µM and the TGI (PC-3 prostate) was 36.2 µM. For the same compound, the TGI (RPMI-8226 leukemia) was 72.3 µM, the TGI (SF-268 CNS) was 28.1 µM and the TGI (SF-295 CNS) was 50.9 µM. For the same compound, the TGI (SF-539 CNS) was 39.8 µM, the TGI (SK-MEL-2 melanoma) was 37.4 µM and the TGI (SK-MEL-28 melanoma) was 48.6 µM. For the same compound, the TGI (SK-MEL-5 melanoma) was 33.4 µM, the TGI (SK-OV-3 ovarian) was 55.9 µM and the TGI (SN12C renal) was 43.6 µM. For the same compound, the TGI (SNB-19 CNS) was 41.3 µM, the TGI (SNB-75 CNS) was 35.6 µM and the TGI (SR leukemia) was 32.9 µM. For the same compound, the TGI (SW-620 colon) was > 100 µM, the TGI (T-47D breast) was 75.3 µM and the TGI (TK-10 renal) was > 100 µM. For the same compound, the TGI (U251 CNS) was 34.7 µM, the TGI (UACC-257 melanoma) was 44.6 µM and the TGI (UACC-62 melanoma) was 36.1 µM. It also gave a TGI (UO-31 renal) of 22.9 µM.
